Reference: patent US20240218022A1, “ANTI-VISTA MACROCYCLIC PEPTIDES AND COMPOSITIONS” (BRISTOL-MYERS SQUIBB COMPANY, priority 2022, published 2024)
Each block holds one compound with its values, some of them ahead of it. Starred links: 1 amine or outer side, 2 acyl side, 3 side chain; linkers in the order of their positions; H or OH if unused. Positions of bridges follow the written chain, without caps; N, C: chain ends. Non-standard residues stand in square brackets, D forms with d. Residues, ends and D or L forms follow the SMILES beside them. Phe(4-CONH2) = NC(=O)c1ccc(C[C@H](N)C(=O)O)cc1; Phe(4-COOH) = N[C@@H](Cc1ccc(C(=O)O)cc1)C(=O)O; γGlu = O=C(O)[C@H](CCC(=O)[*:2])N[*:1]; Val(3-OH) = CC(C)(O)[C@H](N)C(=O)O; 4Pal = N[C@@H](Cc1ccncc1)C(=O)O; NMeE = CN[C@@H](CCC(=O)O)C(=O)O; Ahp(2) = CCCCC[C@H](N)C(=O)O; NMeNle = CCCC[C@H](NC)C(=O)O; Tle = CC(C)(C)[C@H](N)C(=O)O; NHexGly = CCCCCCNCC(=O)O; Nle = CCCC[C@H](N)C(=O)O; Aun = NCCCCCCCCCCC(=O)O; Nva = CCC[C@H](N)C(=O)O; AEEA = NCCOCCOCC(=O)O

Target: T1, mouse VISTA (mVISTA) (Mus musculus, UniProt Q9D659)
T1 construct: expressed in transfected cells; host or cells: Human embryonic kidney 293T cells
T1 sequence (Q9D659 33-308): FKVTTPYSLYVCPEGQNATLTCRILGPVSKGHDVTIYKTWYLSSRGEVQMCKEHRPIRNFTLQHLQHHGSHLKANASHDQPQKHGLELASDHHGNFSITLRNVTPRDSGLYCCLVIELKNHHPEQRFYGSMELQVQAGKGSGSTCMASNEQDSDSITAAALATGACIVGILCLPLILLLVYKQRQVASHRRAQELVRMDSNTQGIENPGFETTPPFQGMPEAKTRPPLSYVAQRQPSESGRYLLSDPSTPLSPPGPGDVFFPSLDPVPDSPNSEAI
Test: Cell-Based Binding High-Content Assay For mVISTA (HC CBA mVISTA)
Details: read-out: HC CBA mVISTA IC50
Method in brief: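 293T cells expressing mouse VISTA, with compounds added either after seeding ("no wash") or before seeding and then washed out after 1 h. Biotinylated peptide 2 nM for 30 min at room temperature, then detection with Alexa 647–streptavidin. After fixation with Hoechst stain, plates were high-content imaged; IC50 from four-parameter logistic fit.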

Compound: CCCCCCN1CC(=O)N[C@@H](Cc2ccc(O)cc2)C(=O)N[C@@H](CCCC)C(=O)N[C@@H](CC(N)=O)C(=O)N[C@@H](CCCNC(=N)N)C(=O)N(C)[C@@H](CCC(=O)O)C(=O)N[C@@H](CCCCC)C(=O)N2CCC[C@H]2C(=O)N[C@@H](C(C)(C)C)C(=O)N[C@@H](CO)C(=O)N[C@H](C(=O)NCCOCCOCC(=O)N[C@@H](CCC(=O)NCCOCCOCC(=O)NCCCCCCCCCCC(=O)O)C(=O)O)CSCC(=O)N[C@@H](Cc2ccccc2)C(=O)N[C@@H](Cc2c[nH]c3ccccc23)C(=O)N[C@@H](CC(=O)O)C1=O [compound 2248] ({CH2CO}-FWD[NHexGly]Y[Nle]NR[NMeE][Ahp(2)]P[Tle]SC[AEEA][γGlu][AEEA][Aun]-OH; thioether N-14)
- IC50: 45.4 nM

Compound: CCCCCCN1CC(=O)N[C@@H](Cc2ccc(O)cc2)C(=O)N[C@@H](CCCC)C(=O)N[C@@H](CC(N)=O)C(=O)N[C@@H](CCCNC(=N)N)C(=O)N(C)[C@@H](CCCC)C(=O)N[C@@H](CCCCC)C(=O)N2CCC[C@H]2C(=O)N[C@@H](C(C)(C)O)C(=O)N[C@@H](CO)C(=O)N[C@H](C(=O)NCCOCCOCC(=O)N[C@@H](CCC(=O)NCCOCCOCC(=O)NCCCCCCCCCCC(=O)O)C(=O)O)CSCC(=O)N[C@@H](Cc2ccccc2)C(=O)N[C@@H](Cc2c[nH]c3ccccc23)C(=O)N[C@@H](CC(=O)O)C1=O [compound 2250] ({CH2CO}-FWD[NHexGly]Y[Nle]NR[NMeNle][Ahp(2)]P[Val(3-OH)]SC[AEEA][γGlu][AEEA][Aun]-OH; thioether N-14)
- IC50: 50.4 nM

Compound: CCCCCCN1CC(=O)N[C@@H](Cc2ccc(O)cc2)C(=O)N[C@@H](CCCC)C(=O)N[C@@H](CC(N)=O)C(=O)N[C@@H](CCCNC(=N)N)C(=O)N(C)[C@@H](CCCC)C(=O)N[C@@H](CCCCC)C(=O)N2CCC[C@H]2C(=O)N[C@@H](C(C)(C)C)C(=O)N[C@@H](CO)C(=O)N[C@H](C(=O)NCCOCCOCC(=O)N[C@@H](CCC(=O)NCCOCCOCC(=O)NCCCCCCCCCCC(=O)O)C(=O)O)CSCC(=O)N[C@@H](Cc2ccc(C(=O)O)cc2)C(=O)N[C@@H](Cc2ccc(O)cc2)C(=O)N[C@@H](CC(=O)O)C1=O [compound 2251] ({CH2CO}-[Phe(4-COOH)]YD[NHexGly]Y[Nle]NR[NMeNle][Ahp(2)]P[Tle]SC[AEEA][γGlu][AEEA][Aun]-OH; thioether N-14)
- IC50: 28.6 nM

Compound: CCCCCCN1CC(=O)N[C@@H](Cc2ccc(O)cc2)C(=O)N[C@@H](CCCC)C(=O)N[C@@H](CC(N)=O)C(=O)N[C@@H](CCCNC(=N)N)C(=O)N(C)[C@@H](CCCC)C(=O)N[C@@H](CCCCC)C(=O)N2CCC[C@H]2C(=O)N[C@@H](C(C)(C)C)C(=O)N[C@@H](CO)C(=O)N[C@H](C(=O)NCCOCCOCC(=O)N[C@@H](CCC(=O)NCCOCCOCC(=O)NCCCCCCCCCCC(=O)O)C(=O)O)CSCC(=O)N[C@@H](Cc2ccncc2)C(=O)N[C@@H](Cc2ccc(O)cc2)C(=O)N[C@@H](CC(=O)O)C1=O [compound 2257] ({CH2CO}-[4Pal]YD[NHexGly]Y[Nle]NR[NMeNle][Ahp(2)]P[Tle]SC[AEEA][γGlu][AEEA][Aun]-OH; thioether N-14)
- IC50: 40.4 nM

Compound: CCCCCCN1CC(=O)N[C@@H](Cc2ccc(O)cc2)C(=O)N[C@@H](CCC)C(=O)N[C@@H](CC(N)=O)C(=O)N[C@@H](CCCNC(=N)N)C(=O)N(C)[C@@H](CCCC)C(=O)N[C@@H](CCCCC)C(=O)N2CCC[C@H]2C(=O)N[C@@H](C(C)(C)C)C(=O)N[C@@H](CO)C(=O)N[C@H](C(=O)NCCOCCOCC(=O)N[C@@H](CCC(=O)NCCOCCOCC(=O)NCCCCCCCCCCC(=O)O)C(=O)O)CSCC(=O)N[C@@H](Cc2ccccc2)C(=O)N[C@@H](Cc2c[nH]c3ccccc23)C(=O)N[C@@H](CC(=O)O)C1=O [compound 2258] ({CH2CO}-FWD[NHexGly]Y[Nva]NR[NMeNle][Ahp(2)]P[Tle]SC[AEEA][γGlu][AEEA][Aun]-OH; thioether N-14)
- IC50: 36.9 nM

Compound: CCCCCCN1CC(=O)N[C@@H](Cc2ccc(O)cc2)C(=O)N[C@@H](CCCC)C(=O)N[C@@H](CC(N)=O)C(=O)N[C@@H](CCCNC(=N)N)C(=O)N(C)[C@@H](CCCC)C(=O)N[C@@H](CCCCC)C(=O)N2CCC[C@H]2C(=O)N[C@@H](C(C)(C)C)C(=O)N[C@@H](CO)C(=O)N[C@H](C(=O)NCCOCCOCC(=O)N[C@@H](CCC(=O)NCCOCCOCC(=O)NCCCCCCCCCCC(=O)O)C(=O)O)CSCC(=O)N[C@@H](Cc2ccc(C(N)=O)cc2)C(=O)N[C@@H](Cc2ccc(O)cc2)C(=O)N[C@@H](CC(=O)O)C1=O [compound 2259] ({CH2CO}-[Phe(4-CONH2)]YD[NHexGly]Y[Nle]NR[NMeNle][Ahp(2)]P[Tle]SC[AEEA][γGlu][AEEA][Aun]-OH; thioether N-14)
- IC50: 38.1 nM

Next, values leading:

- IC50: 12 nM
Compound: CCCCCCN1CC(=O)N[C@@H](Cc2ccc(O)cc2)C(=O)N[C@@H](CCCC)C(=O)N[C@@H](CC(N)=O)C(=O)N[C@@H](CCCNC(=N)N)C(=O)N(C)[C@@H](CCCC)C(=O)N[C@@H](CCCCC)C(=O)N2CCC[C@H]2C(=O)N[C@@H](C(C)(C)C)C(=O)N[C@@H](CO)C(=O)N[C@H](C(=O)NCCOCCOCC(=O)N[C@@H](CCC(=O)NCCOCCOCC(=O)NCCCCCCCCCCC(=O)O)C(=O)O)CSCC(=O)N[C@@H](Cc2ccc(O)cc2)C(=O)N[C@@H](Cc2ccc(O)cc2)C(=O)N[C@@H](CC(=O)O)C1=O [compound 2252] ({CH2CO}-YYD[NHexGly]Y[Nle]NR[NMeNle][Ahp(2)]P[Tle]SC[AEEA][γGlu][AEEA][Aun]-OH; thioether N-14)

- IC50: 20.7 nM
Compound: CCCCCCN1CC(=O)N[C@@H](Cc2ccc(O)cc2)C(=O)N[C@@H](CCCC)C(=O)N[C@@H](CC(N)=O)C(=O)N[C@@H](CCCNC(=N)N)C(=O)N(C)[C@@H](CCCC)C(=O)N[C@@H](CCCCC)C(=O)N2CCC[C@H]2C(=O)N[C@@H](C(C)(C)C)C(=O)N[C@@H](CO)C(=O)N[C@H](C(=O)NCCOCCOCC(=O)N[C@@H](CCC(=O)NCCOCCOCC(=O)NCCCCCCCCCCC(=O)O)C(=O)O)CSCC(=O)N[C@@H](Cc2ccncc2)C(=O)N[C@@H](Cc2c[nH]c3ccccc23)C(=O)N[C@@H](CC(=O)O)C1=O [compound 2253] ({CH2CO}-[4Pal]WD[NHexGly]Y[Nle]NR[NMeNle][Ahp(2)]P[Tle]SC[AEEA][γGlu][AEEA][Aun]-OH; thioether N-14)

- IC50: 27.9 nM
Compound: CCCCCCN1CC(=O)N[C@@H](Cc2ccc(O)cc2)C(=O)N[C@@H](CCCC)C(=O)N[C@@H](CC(N)=O)C(=O)N[C@@H](CCCNC(=N)N)C(=O)N[C@@H](CCCCN)C(=O)N[C@@H](CCCCC)C(=O)N2CCC[C@H]2C(=O)N[C@@H](C(C)(C)C)C(=O)N[C@@H](CC(=O)O)C(=O)N[C@H](C(=O)NCCOCCOCC(=O)N[C@@H](CCC(=O)NCCOCCOCC(=O)NCCCCCCCCCCC(=O)O)C(=O)O)CSCC(=O)N[C@@H](Cc2ccccc2)C(=O)N[C@@H](Cc2c[nH]c3ccccc23)C(=O)N[C@@H](CC(=O)O)C1=O [compound 2254] ({CH2CO}-FWD[NHexGly]Y[Nle]NRK[Ahp(2)]P[Tle]DC[AEEA][γGlu][AEEA][Aun]-OH; thioether N-14)

- IC50: 26.8 nM
Compound: CCCCCCN1CC(=O)N[C@@H](Cc2ccc(O)cc2)C(=O)N[C@@H](CCC)C(=O)N[C@@H](CC(N)=O)C(=O)N[C@@H](CCCNC(=N)N)C(=O)N(C)[C@@H](CCCC)C(=O)N[C@@H](CCCCC)C(=O)N2CCC[C@H]2C(=O)N[C@@H](C(C)(C)C)C(=O)N[C@@H](CC(=O)O)C(=O)N[C@H](C(=O)NCCOCCOCC(=O)N[C@@H](CCC(=O)NCCOCCOCC(=O)NCCCCCCCCCCC(=O)O)C(=O)O)CSCC(=O)N[C@@H](Cc2ccccc2)C(=O)N[C@@H](Cc2c[nH]c3ccccc23)C(=O)N[C@@H](CC(=O)O)C1=O [compound 2255] ({CH2CO}-FWD[NHexGly]Y[Nva]NR[NMeNle][Ahp(2)]P[Tle]DC[AEEA][γGlu][AEEA][Aun]-OH; thioether N-14)

- IC50: 13.8 nM
Compound: CCCCCCN1CC(=O)N[C@@H](Cc2ccc(O)cc2)C(=O)N[C@@H](CCCC)C(=O)N[C@@H](CC(N)=O)C(=O)N[C@@H](CCCNC(=N)N)C(=O)N(C)[C@@H](CCCC)C(=O)N[C@@H](CCCCC)C(=O)N2CCC[C@H]2C(=O)N[C@@H](C(C)(C)C)C(=O)N[C@@H](CO)C(=O)N[C@H](C(=O)NCCOCCOCC(=O)N[C@@H](CCC(=O)NCCOCCOCC(=O)NCCCCCCCCCCC(=O)O)C(=O)O)CSCC(=O)N[C@@H](Cc2ccc(C(=O)O)cc2)C(=O)N[C@@H](Cc2c[nH]c3ccccc23)C(=O)N[C@@H](CC(=O)O)C1=O [compound 2256] ({CH2CO}-[Phe(4-COOH)]WD[NHexGly]Y[Nle]NR[NMeNle][Ahp(2)]P[Tle]SC[AEEA][γGlu][AEEA][Aun]-OH; thioether N-14)

- IC50: 16 nM
Compound: CCCCCCN1CC(=O)N[C@@H](Cc2ccc(O)cc2)C(=O)N[C@@H](CC(C)C)C(=O)N[C@@H](CC(N)=O)C(=O)N[C@@H](CCCNC(=N)N)C(=O)N(C)[C@@H](CCCC)C(=O)N[C@@H](CCCCC)C(=O)N2CCC[C@H]2C(=O)N[C@@H](C(C)(C)C)C(=O)N[C@@H](CO)C(=O)N[C@H](C(=O)NCCOCCOCC(=O)N[C@@H](CCC(=O)NCCOCCOCC(=O)NCCCCCCCCCCC(=O)O)C(=O)O)CSCC(=O)N[C@@H](Cc2ccccc2)C(=O)N[C@@H](Cc2ccc(O)cc2)C(=O)N[C@@H](CC(=O)O)C1=O [compound 2260] ({CH2CO}-FYD[NHexGly]YLNR[NMeNle][Ahp(2)]P[Tle]SC[AEEA][γGlu][AEEA][Aun]-OH; thioether N-14)

- IC50: 23.8 nM
Compound: CCCCCCN1CC(=O)N[C@@H](Cc2ccc(O)cc2)C(=O)N[C@@H](CC(C)C)C(=O)N[C@@H](CC(N)=O)C(=O)N[C@@H](CCCNC(=N)N)C(=O)N(C)[C@@H](CCCC)C(=O)N[C@@H](CCCCC)C(=O)N2CCC[C@H]2C(=O)N[C@@H](C(C)(C)C)C(=O)N[C@@H](CC(=O)O)C(=O)N[C@H](C(=O)NCCOCCOCC(=O)N[C@@H](CCC(=O)NCCOCCOCC(=O)NCCCCCCCCCCC(=O)O)C(=O)O)CSCC(=O)N[C@@H](Cc2ccccc2)C(=O)N[C@@H](Cc2ccc(O)cc2)C(=O)N[C@@H](CC(=O)O)C1=O [compound 2261] ({CH2CO}-FYD[NHexGly]YLNR[NMeNle][Ahp(2)]P[Tle]DC[AEEA][γGlu][AEEA][Aun]-OH; thioether N-14)
